The source made the active and inactive calls. The rule behind the calls is not given here.
How the values were obtained:
Psoas muscle [1] = assay: Increase in psoas muscle force in rabbit skinned single fiber preparation at a calcium concentration that produces a force increase that is 25% of the maximum response in a control preparation by skinned fast skeletal muscle fiber assay; type: functional; details: Oryctolagus cuniculus
Psoas muscle [2] = assay: Activation of fast twitch skeletal muscle in rabbit psoas muscle myofibrils by measuring increase in myofibril ATPase activity at 25% calcium concentration; type: functional; details: Oryctolagus cuniculus
[3] = Metabolic stability in human liver microsomes assessed as intrinsic clearance measured after 90 mins by HPLC/MS/MS analysis; type: ADME, Microsome; details: read-out: CLH
[4] = molecular target: T1, Nuclear receptor subfamily 1 group I member 2 (Homo sapiens, UniProt O75469); assay: Transactivation of human PXR transfected in DPX2 cells assessed as CYP3A4 induction at 10 uM by luciferase reporter gene assay; type: ADME, cell-based; details: dpx2, 10 µM
T1 sequence (O75469 whole entry): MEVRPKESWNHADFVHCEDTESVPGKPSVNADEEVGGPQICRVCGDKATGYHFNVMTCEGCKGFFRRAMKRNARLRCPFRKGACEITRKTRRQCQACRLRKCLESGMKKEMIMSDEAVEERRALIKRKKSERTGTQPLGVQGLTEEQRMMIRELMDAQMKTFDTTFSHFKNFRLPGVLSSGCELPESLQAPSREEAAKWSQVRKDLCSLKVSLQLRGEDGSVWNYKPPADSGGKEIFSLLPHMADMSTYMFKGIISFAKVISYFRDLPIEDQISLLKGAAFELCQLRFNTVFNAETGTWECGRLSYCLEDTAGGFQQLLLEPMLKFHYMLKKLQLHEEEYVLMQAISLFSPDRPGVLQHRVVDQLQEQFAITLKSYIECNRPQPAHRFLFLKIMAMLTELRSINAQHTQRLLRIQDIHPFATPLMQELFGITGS

hERG (KCNH2) = hERG (KCNH2) (Homo sapiens, UniProt Q12809); assay: Displacement of [3H]astemizole from human ERG expressed in HEK293 cells at 100 uM relative to control; type: cell-based; details: HEK293 cells that express hERG, probe [3H]astemizole
Sequence of hERG (KCNH2) (Q12809 whole entry): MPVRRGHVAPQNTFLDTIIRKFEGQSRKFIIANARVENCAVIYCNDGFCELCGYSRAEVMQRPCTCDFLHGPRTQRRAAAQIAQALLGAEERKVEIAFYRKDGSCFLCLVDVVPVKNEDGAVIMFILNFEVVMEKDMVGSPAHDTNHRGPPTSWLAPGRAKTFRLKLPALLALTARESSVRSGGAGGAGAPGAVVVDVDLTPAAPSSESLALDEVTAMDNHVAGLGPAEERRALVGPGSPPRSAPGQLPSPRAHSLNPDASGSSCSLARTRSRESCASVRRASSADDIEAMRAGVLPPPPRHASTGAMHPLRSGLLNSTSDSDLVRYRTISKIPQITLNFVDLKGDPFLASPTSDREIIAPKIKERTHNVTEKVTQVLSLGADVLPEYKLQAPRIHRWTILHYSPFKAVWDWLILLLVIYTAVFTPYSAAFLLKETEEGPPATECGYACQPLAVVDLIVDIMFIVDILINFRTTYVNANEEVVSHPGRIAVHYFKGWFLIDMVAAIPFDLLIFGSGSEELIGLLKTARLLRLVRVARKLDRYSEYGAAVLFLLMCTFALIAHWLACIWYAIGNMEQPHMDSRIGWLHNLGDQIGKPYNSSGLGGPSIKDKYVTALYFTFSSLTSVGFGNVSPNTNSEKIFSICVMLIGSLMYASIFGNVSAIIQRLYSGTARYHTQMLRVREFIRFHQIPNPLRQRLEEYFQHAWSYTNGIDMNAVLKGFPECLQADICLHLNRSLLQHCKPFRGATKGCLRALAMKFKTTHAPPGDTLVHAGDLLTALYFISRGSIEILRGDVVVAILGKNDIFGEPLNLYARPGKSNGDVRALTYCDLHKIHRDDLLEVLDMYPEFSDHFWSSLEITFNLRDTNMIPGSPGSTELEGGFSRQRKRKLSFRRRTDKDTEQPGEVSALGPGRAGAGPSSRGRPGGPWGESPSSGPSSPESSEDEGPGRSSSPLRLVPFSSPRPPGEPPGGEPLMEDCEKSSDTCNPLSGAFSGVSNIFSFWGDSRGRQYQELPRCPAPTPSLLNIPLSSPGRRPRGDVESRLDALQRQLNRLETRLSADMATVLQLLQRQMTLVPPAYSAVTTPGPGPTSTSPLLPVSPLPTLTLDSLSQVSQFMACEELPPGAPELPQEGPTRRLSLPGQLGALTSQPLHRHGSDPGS

[5] = Plasma protein binding in male rat assessed as unbound fraction; type: ADME, cell-free
[6] = Drug distribution in Sprague-Dawley rat brain to blood ratio at 100 mg/kg, po by HPLC analysis; type: ADME, organism-based
[7] = Drug distribution in Sprague-Dawley rat Soleus muscle to blood ratio at 100 mg/kg, po by HPLC analysis; type: ADME, organism-based
[8] = Drug distribution in Sprague-Dawley rat extensor digitorum longus to blood ratio at 100 mg/kg, po by HPLC analysis; type: ADME, organism-based
[9] = Drug distribution in Sprague-Dawley rat plasma to blood ratio at 100 mg/kg, po by HPLC analysis; type: ADME, organism-based; details: in vivo
[10] = Efflux ratio of apparent permeability in human Caco-2 cells; type: ADME, cell-based
[11] = Clearance in male Sprague-Dawley rat at 3 mg/kg, po administered as single dose measured up to 24 hrs by HPLC analysis; type: ADME, organism-based; details: in vivo
[12] = Volume of distribution at steady state in male Sprague-Dawley rat at 3 mg/kg, po administered as single dose measured up to 24 hrs by HPLC analysis; type: ADME, organism-based; details: in vivo
[13] = Metabolic stability in male rat liver microsomes assessed as intrinsic clearance measured after 90 mins by HPLC/MS/MS analysis; type: ADME, Microsome; details: read-out: CLH
[14] = Intrinsic clearance in male rat hepatocytes; type: ADME, cell-based, Hepatocyte; details: read-out: CLH
[15] = Thermodynamic solubility of the compound; type: physicochemical; details: read-out: Therm_solubility
[16] = tested on: Extensor digitorum longus; assay: Increase in muscle tension in rat extensor digitorum longus muscle rat model assessed as free plasma concentration to increase muscle tension at subtetanic nerve stimulation rate of 30 Hz; type: functional, tissue-based
[17] = Oral bioavailability in male Sprague-Dawley rat at 3 mg/kg administered as single dose measured up to 24 hrs by HPLC analysis; type: ADME, organism-based; details: in vivo
[18] = Clearance in male Sprague-Dawley rat at 1 mg/kg, po administered as single dose measured up to 24 hrs by HPLC analysis; type: ADME, organism-based; details: in vivo
[19] = Volume of distribution at steady state in male Sprague-Dawley rat at 1 mg/kg, po administered as single dose measured up to 24 hrs by HPLC analysis; type: ADME, organism-based; details: in vivo
[20] = molecular target: Voltage-gated inwardly rectifying potassium channel KCNH2 (Homo sapiens, UniProt Q12809); assay: Inhibition of human ERG expressed in HEK293 cells at -80 mV holding potential by patch clamp assay; type: cell-based
Sequence of Voltage-gated inwardly rectifying potassium channel KCNH2 (Q12809 whole entry): as above

[21] = Oral bioavailability in male Sprague-Dawley rat at 1 mg/kg administered as single dose measured up to 24 hrs by HPLC analysis; type: ADME, organism-based; details: in vivo

SMILES | EC30 (Psoas muscle [1]) | EC40 (Psoas muscle [2]) | CLint scaled [3] | inhibition at 100 µM (hERG (KCNH2)) | fraction unbound [5] | other results
CNC(=O)c1cccc(-c2cnc(NC[C@]3(c4ncccc4F)C[C@H](F)C3)nc2)c1 | 500 nM | 900 nM | < 7 mL/min/kg | 42% | 0.27 | Activity [4]: 31%; Kp [6]: 0.027; Kp [7]: 0.53; Kp [8]: 0.54; Ratio [9]: 1.15; efflux ratio [10]: 10; CL/F [11]: 52 mL/min/kg; Vdss [12]: 2.6 L/kg; CLint scaled [13]: 14 mL/min/kg; CLint scaled [14]: < 32 mL/min/kg
CC(C)(CNc1nc(-c2ccc(C(N)=O)cc2)ns1)c1ccc(F)cc1 | 2300 nM | 500 nM | 9 mL/min/kg |  |  | solubility thermodynamic [15]: < 27 µM
C#Cc1cnc2nc(O)n(C(CC)CC)c2n1 [TIRASEMTIV] |  |  |  |  | 0.05 | EC50 [16]: 6000 nM; Kp [6]: 0.27; Kp [7]: 0.3; Ratio [9]: 1.62; efflux ratio [10]: 0.9
NC(=O)c1ccn(-c2cnc(NCC3(c4ncccc4F)CCC3)nc2)c1 | 1400 nM | 1300 nM | < 14 mL/min/kg | 43% |  | 
NC(=O)c1cnn(-c2ccc(NCC3(c4ncccc4F)CC(F)(F)C3)nn2)c1 | 4000 nM | 2600 nM |  |  |  | 
CC(C)(CNc1nc(-c2cccc(C(N)=O)c2)ns1)c1ccc(F)cc1 | 1400 nM | 500 nM | 11 mL/min/kg |  |  | solubility thermodynamic [15]: < 27 µM
CC(C)(CNc1ncns1)c1ccc(F)cc1 |  | 8400 nM | 30 mL/min/kg |  |  | 
NC(=O)c1cccc(-c2cnc(NC[C@]3(c4ncccc4F)C[C@H](F)C3)nc2)c1 | 800 nM | 300 nM | < 14 mL/min/kg | 46% | 0.15 | Activity [4]: 68%; Kp [6]: 0.15; Kp [7]: 1.16; Kp [8]: 1.2; Ratio [9]: 1.85; efflux ratio [10]: 1.8; CL/F [11]: 59 mL/min/kg; Vdss [12]: 1.7 L/kg; bioavailability [17]: 21%; CLint scaled [13]: 38 mL/min/kg; CLint scaled [14]: 38 mL/min/kg
NC(=O)c1cccc(-c2ccc(NCC3(c4ccc(F)cc4)CCC3)nn2)c1 | 600 nM | 200 nM | 15 mL/min/kg |  |  | 
NC(=O)c1cnn(-c2ccc(NC[C@]3(c4ncccc4F)C[C@H](F)C3)nn2)c1 | 1100 nM | 800 nM | < 14 mL/min/kg | 16% | 0.55 | Activity [4]: 7%; CL/F [18]: 115 mL/min/kg; Vdss [19]: 2.6 L/kg; CLint scaled [13]: 30 mL/min/kg; CLint scaled [14]: 90 mL/min/kg
Fc1ccc(Cc2nsc(NCCc3ccccc3)n2)cc1 |  | 23300 nM |  |  |  | 
NC(=O)c1cccc(-c2ccc(NCC3(c4cnccn4)CCC3)nn2)c1 |  | 46100 nM | < 7 mL/min/kg |  |  | 
Fc1ccc(Cc2nsc(NCCc3ccc(Cl)cc3)n2)cc1 | 13700 nM | 4300 nM |  |  |  | 
COCCCc1nsc(NCC(C)(C)c2ccc(F)cc2)n1 |  | 2500 nM |  |  |  | 
CC(C)(CNc1ncc(-c2cccc(C(N)=O)c2)cn1)c1ccc(F)cc1 | 7800 nM | 8700 nM | 6 mL/min/kg |  |  | 
Fc1ccc(CCNc2nc(Cc3ccc(F)cc3)ns2)cc1 |  | 9900 nM |  |  |  | 
NC(=O)c1cnn(-c2ccc(NCC3(c4ncccc4F)CCC3)nn2)c1 | 700 nM | 500 nM | < 14 mL/min/kg | 19% | 0.42 | IC50 [20]: > 100000 nM; CL/F [18]: 136 mL/min/kg; Vdss [19]: 2.2 L/kg; bioavailability [21]: 12%; CLint scaled [13]: 30 mL/min/kg; CLint scaled [14]: 378 mL/min/kg
CC(C)(CNc1cnc(-c2cccc(C(N)=O)c2)cn1)c1ccc(F)cc1 | inactive | 800 nM |  |  |  | 
NC(=O)c1nccc(-c2ccc(NCC3(c4ncccc4F)CCC3)nn2)n1 |  | > 49000 nM |  |  |  | 
NC(=O)c1ccn(-c2ccc(NCC3(c4ncccc4F)CCC3)nn2)c1 | 1100 nM | 900 nM | < 14 mL/min/kg | 27% | 0.35 | Activity [4]: 43%; IC50 [20]: 97000 nM; CL/F [18]: 73 mL/min/kg; Vdss [19]: 2.4 L/kg; CLint scaled [13]: 26 mL/min/kg; CLint scaled [14]: 207 mL/min/kg

Reference: ChEMBL document CHEMBL4842386, “Discovery of Reldesemtiv, a Fast Skeletal Muscle Troponin Activator for the Treatment of Impaired Muscle Function” (J Med Chem, 2021)
